Source: patent publication US9468690B2, “Decorin gene delivery system and cancer treatment” ([…] CO., LTD., priority 2005, dated 2016)

Legend:
Type in all cases: cell-based, human
[1] = test system: C33A cells; assay: Flow cytometry after PI staining, subG1 cell population
Method: (§1) To examine apoptosis induced by decorin, human tumor cell lines, U343, U87MG, C33A, Hep3B and A549 were introduced to 25T culture flasks and 24 hr later, were infected with each adenovirus at MOIs of 0.5-50. […] After 48 hr, 72 hr and 96 hr of infection, the infected cells were collected and fixed in 70% ethanol at 4° C. over 24 hr. Following the fixation, the cells were incubated at 4° C. with a mixture of PI (propidium iodide, 50 μg/ml) and RNase (ribonuclease) for 15 min and the FACS analysis was then performed.

[2] = test system: U343 cells; assay: as above
Method: as §1

[3] = test system: A549 cells; assay: as above
Method: as §1

[4] = test system: Hep3B cells; assay: as above
Method: as §1

[5] = test system: U87MG cells; assay: as above
Method: as §1

[6] = test system: C33A cells; assay: TUNEL assay
Method: (§2) U343 (5×10^4), U87MG (5×10^4), C33A (5×10^5), Hep3B (4×10^5) and A549 (5×10^4) cells were plated onto a chamber slide and then infected with adenovirus at an MOI of 0.2-20. Following 24 hr and 48 hr of infection, medium was removed and TUNNEL (terminal deoxynucleotidyl transferase(TdT)-mediated dUTP nick end labeling) assay was carried out according to the manufacturer's instruction of ApopTag kit (Intergen, Purchase, N.Y.). For color development, cells were incubated with peroxidase-conjugated avidin and DAB (diaminobenzidine; DAKO, Carpinteria, Calif.). At the time that color of cells became brown, cells were counterstained with 0.5% methyl green for 10 min and observed under microscope in more than 4 selected fields. The ratio of stained cells to total cells was calculated.

[7] = test system: U343 cells; assay: TUNEL assay
Method: as §2

[8] = test system: A549 cells; assay: TUNEL assay
Method: as §2

[9] = test system: Hep3B cells; assay: TUNEL assay
Method: as §2

[10] = test system: U87MG cells; assay: TUNEL assay
Method: as §2

[11] = test system: U343 cells; assay: Annexin V-FITC and PI dual staining, flow cytometry; settings: FIG. 9b, replication-incompetent adenoviruses
Source text: In addition, to examine early apoptosis induced by decorin, several human tumor cell lines were infected with each adenovirus as described above. The infected cells were collected and then processed for Annexin V/PI dual staining according to manufacturer's instruction in the ApoAlert V-FITC (fluorescein isothiocyanate) apoptosis detection kit (Clontech, Palo Alto, Calif.), followed by flow cytometric analysis.

[12] = Table 1, oncolytic adenoviruses, 48-96 hr post-infection
[13] = Table 2, replication-incompetent adenoviruses
[14] = Table 3 lower part, replication-incompetent adenoviruses
[15] = Table 3 upper part, oncolytic adenoviruses

CCc1c2c(nc3ccc(OC(=O)N4CCC(N5CCCCC5)CC4)cc13)-c1cc3c(c(=O)n1C2)COC(=O)[C@]3(O)CC [CPT, camptothecin-11]
subG1 cell population (%) [1, 12]: 26.44%
subG1 cell population (%) [1, 13]: 68.20%
subG1 cell population (%) [2, 12]: 59.86%
subG1 cell population (%) [2, 13]: 29.02%
subG1 cell population (%) [3, 12]: 17.96%
subG1 cell population (%) [3, 13]: 21.59%
subG1 cell population (%) [4, 12]: 5.99%
subG1 cell population (%) [4, 13]: 16.60%
subG1 cell population (%) [5, 12]: 14.78%
subG1 cell population (%) [5, 13]: 12.51%
Proportion of apoptotic cells (%) [6, 14]: 70.51 ± 15.90%
Proportion of apoptotic cells (%) [6, 15]: 60.1 ± 25.91%
Proportion of apoptotic cells (%) [7, 14]: 74.67 ± 12.38%
Proportion of apoptotic cells (%) [7, 15]: 53.5 ± 7.45%
Proportion of apoptotic cells (%) [8, 14]: 69.80 ± 8.38%
Proportion of apoptotic cells (%) [8, 15]: 37.5 ± 5.35%
Proportion of apoptotic cells (%) [9, 14]: 75.86 ± 3.11%
Proportion of apoptotic cells (%) [9, 15]: 71.2 ± 15.73%
Proportion of apoptotic cells (%) [10, 14]: 40.00 ± 13.17%
Proportion of apoptotic cells (%) [10, 15]: 83.0 ± 29.29%
apoptotic rate (Annexin V-FITC+/PI−) [11]: 19.41%
